Consider 13 molecules from patent US20230139883A1, “Peptides for Inducing Differentiation” (Shimadzu Corporation, priority 2020, published 2023).

In one series the test system is FGFR2. Briefly: Yeast display screening (MACS/FACS) against FGFR2 with Sanger sequencing of single colonies. The series is classed as binding. The conditions noted are these: frequency of the clone among randomly selected single colonies after FGFR2 screening. As for the experimental part:
Cells were then charged to an LS column attached to a magnetic stand. In order to remove yeast cells not bound to FGFR2, 7 mL of PBSM was flowed through the LS column twice. The LS column was then removed from the magnetic stand and FGFR2-binding yeast clones were collected by flowing SDCAA medium and cultured. The above operations were deemed as one round, and a total of three rounds were performed (Table 10). Next, yeast clones with high binding activity were screened from the yeast collected by MACS, using FACS (Fluorescence-activated cell sorting). FGFR2-Fc and mouse anti-FLAG antibodies were bound to the yeast library, followed by binding of anti-mouse IgG-Alexa488 and anti-human Fc antibody-Alexa647. […] The binding of the peptide to FGFR2 can also be detected by the fluorescence intensity of Alexa647. With that, yeast clones with high fluorescence intensities of Alexa488 and Alexa647 were collected by FACS cell sorter (BD FACS AriaIII).
The phage library eluted after panning of Example 7 (Table 9: Input phage (Round 4)) was subjected to Human IgG Fc-immobilized plate, and negative selection was performed by collecting unbound phages. The phage library was then acted to FGFR3 prepared to concentrations of 100 nM, 10 nM, and 1 nM. Bound phages were then collected. The genomic DNA of the collected phages was extracted, samples were prepared according to Illumina's protocol for Miseq, and a comprehensive analysis of the phage genomic DNA was performed. Among the sequences obtained, 20 sequences high incidence rates were selected (Table 11). The yeast cells acquired in the screening of Example 8 were seeded onto SDCAA agar plates and cultured. Fourteen single colonies formed on the agar plates were randomly selected, and for each clone, the peptide DNA sequence incorporated into the yeast expression plasmid was analyzed using the Sanger method (Table 12).

The next series concerns FGFR1. Nature of the series: Phage display selection against FGFR1 with Miseq analysis of the bound phages. The series is classed as binding. The protocol:
The collected phage library was mixed with 100 nM of FGFR3 solution and allowed to react overnight at 4° C. (Table 5: Panning Round 1). After the reaction, the binding phages were captured by magnetic beads modified with protein A, and washed three times with PBS-T, followed by eluting the bound phages with Gly-HCl (pH 2.0). After neutralizing with 2M Tris, the phages were infected to E. coli. After 4 hours of incubation, helper phages were added, and the E. coli were allowed to produce phages overnight. Next, phage solution was prepared from the culture supernatant. The prepared phage solution was mixed with FGFR3 solution and allowed to react overnight at 4° C. (Table 5: Panning Round 2). After the reaction, the bound phages were eluted. Phage solution prepared in the same way was mixed with FGFR3 solution and allowed to react at 4° C. for 1 hour (Table 5: Panning Round 3). After the reaction, the bound phages were eluted. This operation was repeated two more times, and after Panning Round 5, the bound phages were eluted. Note that as the rounds proceeded, the number of washes with PBS-T was increased. (Table 5). The titer of the Output phage in each round was also determined. The titer of phage was determined from the number of colonies obtained by incubating the E. coli TG1 strain contacted with the phage at 37° C. overnight. As shown in FIG. 3<Input phage (Round 5)>, the eluted phage library after panning was subjected to Human IgG Fc-immobilized plate, and negative selection was performed by collecting unbound phages. The phage library was then acted to FGFR1 prepared to concentrations of 100 nM, 10 nM, and 1 nM. Bound phages were then collected. The phagemid DNA of the collected phages was extracted, samples were prepared according to Illumina's protocol for Miseq, and a comprehensive analysis of the phagemid DNA was performed. Among the sequences obtained, 23 sequences with high incidence rates were selected (Table 6).

Another series concerns FGFR. Briefly: Binding to FGFR by surface plasmon resonance (Biacore T200). The settings on record: SPR, 25° C., FGFR1, FGFR2 or FGFR3 immobilized (FIG. 4). The source says:
One clone was selected from the amino acid sequences of the clones obtained above, and the peptide of 100nX (X is 9: SEQ ID NO: 9, the same shall apply hereinafter.) was synthesized. The peptide was synthesized based on the Fmoc solid-phase synthesis method. To measure the binding activity of the peptides, according to the operation manual of the SPR instrument Biacore T200 (GE Healthcare), FGFR1 was immobilized as a ligand to the instrument's sensor chip CMS using the amine coupling method. In addition, to confirm binding to other FGFR species, FGFR2 or FGFR3-immobilized sensor chips were also prepared. Ethanolamine was immobilized as a reference, and the samples were measured as analyte.
All measurements were performed at 25° C. and HBS-EP+ was used as the running buffer. After injecting the running buffer dissolving the peptide into the CMS sensor chip immobilized with various FGFRs (flow rate 30 μl/min, 2 min), the peptide was dissociated by flowing the running buffer for 3 min. The obtained sensorgram was directly curve-fitted with the reaction equation, and the rate constant was calculated by a nonlinear least-squares method. Dissociation constants were calculated by kinetic analysis using Biacore T200 Evaluation Software (GE Healthcare). A 1:1 binding model was used in the analysis.
(Surface plasmon resonance follows binding to a sensor surface in real time, without labels.)

The subject of series [1] is iPS-hFB. In kind it is cell-based. As for the experimental part: An attempt to apply 100nX to a differentiation induction system from iPS cells to hepatocytes was made. […] Then, cells were seeded in 6-well plates at 1.5×10^5 cells/well. […] The medium was replaced on Day 3 using the same medium. The medium was removed on Day 5 and RPMI1640 supplemented with B-27 Plus Supplement (Thermo), 20 ng/mL BMP4, and 20 ng/mL bFGF was added at 2 mL/well (conventional protocol; FIG. 14, protocol 1). […] Further, as a control group, RPMI1640 supplemented with B-27 Plus Supplement (Thermo), and 20 ng/mL BMP4 was added at 2 mL/well (conventional protocol; FIG. 14, protocol 2). The medium was replaced on Day 8 using the same medium. In all conditions, the medium was removed on Day 10, and RPMI1640 supplemented with B-27 Plus Supplement (Thermo), and 20 ng/mL HGF was added at 2 mL/well. The medium was replaced on Day 12 and Day 14 using the same medium. The medium was exchanged with HCM BulletKit (Lonza) (containing HBM, Ascorbic Acid, BSA-FAF, Hydrocortisone, Transferin, GA-1000, and Insulin) on Day 15 at 2 mL/well. On Day 17 and Day 18, the medium was exchanged with the same medium.

In series [2] the test system is iPS-hFB. Briefly: CYP3A4 activity (luciferin-IPA) of hepatocytes induced to differentiate from iPS cells. The settings on record: Day 20, luminescence corrected by protein. The series is classed as cell-based. As for the experimental part: Differentiation of iPS cells was induced in the same manner as in Example 13. After the cells were washed with PBS on Day 20, the medium was exchanged with HCM BulletKit (Lonza) containing 3 μM luciferin-IPA at 1 mL/well. After 1 hour of reaction at 37° C., 100 μL of the supernatant was transferred to a 96-well white plate., and Luciferin Detection Reagent was added at 100 μL/well. After 20 minutes of reaction at room temperature, the luminescence was measured. The cells were also crushed and the luminescence value was corrected by quantifying proteins with TaKaRa BCA Protein Assay Kit (Takara Bio).

Series [3] concerns iPS-hFB. Nature of the series: Differentiation induction of iPS cells into neurons: RT-qPCR of SYN1, MAP2 and Nr2f1. The settings on record: for Nr2f1 gene expression level: 0.25 nM peptide on Day 3, Day 35. The series is classed as cell-based. As for the experimental part: An attempt to apply 100nX to a differentiation induction system from iPS cells to neurons was made. […] A group in which G-MEM supplemented with 20% KSR (Thermo), 1xNEAA (Thermo), 0.1 mM 2-mercaptoethanol (Wako Pure Chemicals), 1 mM sodium pyruvate (Thermo), 20 μM Y27632 (Wako Pure Chemicals), 3 μM IWR-1-endo (Wako Pure Chemicals), 5 μM SB431542 (Wako Pure Chemicals) was added at 100 μL/well was prepared as a control group (FIG. 14, protocol 2). On Day 6, the entire medium was replaced with the medium of each condition containing no Y27632 (Wako Pure Chemicals). Likewise, the medium was exchanged at Day 10 and Day 14. The medium was removed on Day 18 and the cells added with DMEM/F12 (GlutaMax) (Thermo) containing 1% N-2 Supplement and 1% Chemically Defined Lipid Concentrate were transferred to EZSPHERE (AGC Technoglass) at 2 mL/well. On Day 21, 24, and 27, the medium was replaced with DMEM/F12 (GlutaMax) (Thermo) containing 1% N-2 Supplement. Further, On Day 30, and 33, the medium was replaced with DMEM/F12 (GlutaMax) (Thermo) containing 1% N-2 Supplement and 1% Chemically Defined Lipid Concentrate.

For series [4], the system named is iPS-hFB. Nature of the series: Differentiation induction of iPS cells into cardiomyocytes: observation of beating cell clusters. The settings on record: Example 3: 0.05 μM peptide + Activin A on Day 1, no bFGF.
For series [5], the system named is iPS-hFB. Briefly: Differentiation induction of iPS cells into cardiomyocytes: RT-qPCR of cardiomyocyte markers cTNT and Actinin. The settings on record: Day 23; for gene expression levels (cTNT, ACTN2): Example 4: peptide in combination with bFGF, compared to conventional protocol 1.
[6] abbreviates: 0.25 nM peptide, Day 35, compared to control protocol 2 (no bFGF).
Setting [7] is: Example 3, protocol 5, 0.05 μM, compared to protocols 1, 3, 4 or 6.

On to “CPRELEALRRELGALMGGGGGGG----KLNALMLKLYALHNAC [FGFR_Y14]”, for which, in the series on FGFR2, the Frequency is listed as 1.
Regarding “CAAELAALEAELAALEGPPRPHLPPLGKLFLLKFKLYLLKGAC [FGFR_Y09]”, the Frequency in the series with FGFR2 was 1.
The same measure, in the same setting: as for “CAAELAALEAELAALEGGGGGGG----KLMDLHYQLYNLFIAC [FGFR_Y01]”, the figure is 1.
Consider “CAAELAALEAELAALEGVPGDNNGTRGKLYHLKNKLHRLKNAC [100n9]”, for which the “1 nM Num. of reads” value in the series on FGFR1 (phage library after panning Round 5, bound to 1 nM FGFR1) came to 6403. Besides, in the series with FGFR1 (phage library after panning Round 5, bound to 10 nM FGFR1), the “10 nM Num. of reads” value is 7169. Moreover, the “100 nM Num. of reads” value in the series on FGFR1 (phage library after panning Round 5, bound to 100 nM FGFR1) is 6135. In addition, the “1 nM Ranking” value in the series on FGFR1 (rank by number of reads, 1 nM FGFR1) is recorded as 4. Moreover, in the series with FGFR1 (rank by number of reads, 10 nM FGFR1), the “10 nM Ranking” value was 3. For the same molecule, in the series on FGFR1 (rank by number of reads, 100 nM FGFR1), the “100 nM Ranking” value is given as 3. In addition, the “binding affinity to the FGFR” value in the series with FGFR was “high binding affinity”. Besides, in the series with iPS-hFB [1], the “promotion of hepatic differentiation” value was “as effective as or better than conventional bFGF”. The CYP3A4 activity result with iPS-hFB [2] (compared to control protocol 2 (BMP4)) is reported as “significantly increased”; in the series with iPS-hFB [2] (compared to conventional protocol 1 (BMP4, bFGF)) it was “similar”. Besides, the “Nr2f1 gene expression level” value in the series on iPS-hFB [3] (compared to control protocol 2 (no bFGF)) is “significantly increased”; in the series with iPS-hFB [3] (compared to conventional protocol 1 (bFGF)), “similar”. The “MAP2 gene expression level” value in the series on iPS-hFB [3] (setting [6]) is reported as “tended to increase”. For the same molecule, in the series with iPS-hFB [3] (setting [6]), the “SYN1 gene expression level” value is “tended to increase”. Further, the “promotion of / contribution to neural differentiation” value with iPS-hFB [3] (overall, relative to bFGF) is on record as “as effective as conventional bFGF”. Besides, the “day on which beating cell clusters were observed” value in the series on iPS-hFB [4] was at least 16 days. In addition, the “gene expression levels (cTNT, ACTN2)” value in the series with iPS-hFB [5] is reported as “significantly increased”.
“CAHHLASLEYDLAILEGGDGGGG----HLARLKRQLAELKNAC [FGFR_Y16]” had a Frequency in the series with FGFR2 of 1.
Molecule “CARELRALRRELRALQGGGGGGG----KLHALHRKLFALMVAC [FGFR_Y06]” displayed a Frequency in the series with FGFR2 of 1.
For “CAAELAALEAELAALEGGGGGGG----FLRNLHIKLYLLQFAC [FGFR_Y07]”, the Frequency in the series on FGFR2 worked out at 1.
For the molecule “CARELQALGKELKALKGGGGGGG----KLRALQLKLYALQVAC [FGFR_Y10]”, the Frequency in the series with FGFR2 worked out at 1.
Same read-out and setting: as for “CAAELAALEAELAALEGPSRVGSRRRGKLNLLKYKLHGLKLAC [FGFR_Y13]”, the figure is 1; as for “CAQELRALLRELQALGGGGGGGG----KLGALVFKLYALMLAC [FGFR_Y15]”, 1.
“CAQELVALHMELRALGGGGGGGG----KLQALYLKLFALDHAC [FGFR_Y04]” registered a Frequency with FGFR2 of 1.
On to “CAKELLALKRELKALQGGGGGGG----KLRALQLKLYALLLAC [FGFR_Y11]”, for which, in the series with FGFR2, the Frequency is 2.

B1: 100nX-Dimer: a dimerized peptide of 100nX (SEQ ID NO: 9) (peptide)
chain 1: CAAELAALEAELAALEGVPGDNNGTRGKLYHLKNKLHRLKNAC
chain 2: CAAELAALEAELAALEGVPGDNNGTRGKLYHLKNKLHRLKNAC
modifications: dimerized
Consider B1, for which, in the series with iPS-hFB [4], the “day on which beating cell clusters were observed” value amounted to 11 days. For the same molecule, in the series on iPS-hFB [5] (setting [7]), the ACTN2 expression level result is on record as “significantly increased” and the cTNT expression level entry is given as “significantly increased”. Also, the “gene expression levels (cTNT, ACTN2)” value with iPS-hFB [5] is listed as “significantly increased”.
